From ChEMBL document CHEMBL1142836 (Bioorg Med Chem Lett, 2005)

Molecular target: Carbonic anhydrase 9 (Homo sapiens, UniProt Q16790)

| SMILES | Ki [µM] |
| --- | --- |
| CN1CCN(CC(=O)Nc2nnc(S(N)(=O)=O)s2)CC1 | 0.031 |
| NS(=O)(=O)c1ccc(NC(=O)CN2CCOCC2)cc1 | 0.181 |
| CC1CCN(CCCC(=O)Nc2ccc(S(N)(=O)=O)cc2)CC1 | 0.09 |
| CC1CCN(CCC(=O)Nc2ccc(S(N)(=O)=O)cc2)CC1 | 0.197 |
| NS(=O)(=O)c1ccc(NC(=O)CCN2CCC(Cc3ccccc3)CC2)cc1 | 0.248 |
| NS(=O)(=O)c1nnc(NC(=O)CN2CCOCC2)s1 | 0.022 |
| NS(=O)(=O)c1ccc(NC(=O)CCN2CCN(Cc3ccccc3)CC2)cc1 | 0.24 |
| CC1CCN(CC(=O)Nc2nnc(S(N)(=O)=O)s2)CC1 | 0.035 |
| NS(=O)(=O)c1ccc(NC(=O)CCCCN2CCOCC2)cc1 | 0.163 |
| NS(=O)(=O)c1nnc(NC(=O)CN2CCN(Cc3ccccc3)CC2)s1 | 0.067 |
| CN1CCN(CCC(=O)Nc2ccc(S(N)(=O)=O)cc2)CC1 | 0.235 |
| NS(=O)(=O)c1ccc(NC(=O)CCN2CCOCC2)cc1 | 0.184 |
| NS(=O)(=O)c1ccc(NC(=O)CCCN2CCOCC2)cc1 | 0.246 |
| CN1CCN(CCC(=O)Nc2nnc(S(N)(=O)=O)s2)CC1 | 0.033 |
